{"source": "patent US7524849B2", "about": "“5-arylpyrimidines as anticancer agents” (Wyeth Holdings Corporation, priority 2003, dated 2009)", "key": {"[1]": {"tested_on": "DLD1 Human Colon Carcinoma", "test": "Human tumor xenograft test, DLD1 colon carcinoma", "format": "in vivo, athymic mice", "details": "for T/C on day 0 / T/C on day 7 / T/C on day 14: schedule days 1, 7, DLD1"}, "[2]": {"tested_on": "U87-MG Human Glioblastoma", "test": "Human tumor xenograft test, U87-MG glioblastoma", "format": "in vivo, athymic mice", "details": "for T/C on day 0 / T/C on day 3 / T/C on day 7 / T/C on day 10: schedule day 1, U87-MG"}, "[3]": {"tested_on": "MAP-rich tubulin", "test": "Tubulin polymerization test with MAP-rich tubulin", "format": "biochemical, bovine", "details": "0.3 μM compound, mean A340 at 20 min, fold enhancement over control", "experimental": "(§1) Medium is RPMI-1640 with L-glutamine, supplemented with 10% heat-inactivated fetal calf serum, 100 units/mL penicillin, and 100 μg/mL streptomycin (Gibco, Grand Island, N.Y.). Microtubule-associated protein (MAP)-rich tubulin, containing about 70% tubulin and 30% MAPs (#ML113), and highly purified tubulin (>99% pure, #TL238), both from bovine brain, are obtained from Cytoskeleton, Inc., Denver, Colo. PEM buffer (80 mM piperazine-N,N′-bis[2-ethanesulfonic acid], pH 6.9, 1 mM ethylene glycol-bis(β-aminoethyl ether)-N,N,N′,N′-tetraacetic acid, 1 mM magnesium chloride) and guanosine 5′-triphosphate (GTP) are also obtained from Cytoskeleton. […] [^3H]vinblastine, specific activity 9.60 Ci/mmol and MicroSpin G-50 columns are obtained from Amersham Biosciences (Piscataway, N.J.). […] Other reagents are obtained from Sigma (St. Louis, Mo.).\nMAP-rich tubulin is dissolved in ice-cold PEM buffer containing 1 mM GTP (GPEM buffer) at a concentration of 1.3 mg/mL. The solution is centrifuged at top speed in an Eppendorf model 5415C microcentrifuge (Brinkmann Instruments, Westbury, N.Y.) for 10 min at 4° immediately before use. The tubulin solution is added to wells of a ½-area 96-well plate (Costar No. 3696, Corning, Inc., Corning, N.Y.) already containing the compounds of interest. Each compound is tested in duplicate at a final concentration of 0.3 μM in a volume of 110 μL per well. The final DMSO concentration in all wells is 0.3%. Control reactions, which receive compound solvent only, are done in quadruplicate. The plate is put in a SpectraMax Plus plate reader (Molecular Devices Corp. Sunnyvale, Calif.) thermostated at 24° and the absorbance of each well at 340 nm, a measure of the appearance of turbidity due to tubulin polymer formation, is determined every minute for 60 minutes. The absorbance at time 0 for each well is subtracted from each of the subsequent absorbance readings for that well, and then the duplicates are averaged."}, "[4]": {"tested_on": "highly purified tubulin (tubulin heterodimer)", "test": "Competitive binding test, [3H]vinblastine", "set-up": "species or system bovine", "details": "competitor 100 μM, [3H]vinblastine 100 nM, percent of binding to control without competitor", "experimental": "as §1\n(§2) The binding of examples of this invention to highly purified tubulin is studied by competitive inhibition methods.\n(§3) These solutions are incubated at 24° for 1 hr and then applied to MicroSpin G-50 columns which are centrifuged for 2 min at 3000 rpm in an Eppendorf 5415C microfuge. An aliquot of each column effluent (containing tubulin and bound radioligand) is mixed with scintillation fluid and counted in a liquid scintillation spectrometer. […] Quadruplicates are averaged, and the ability of the competitor to inhibit the binding of the radioligand is expressed as a percentage of control binding in the absence of any competitor."}, "[5]": {"tested_on": "polymerized tubulin (microtubules)", "test": "Competitive binding test, [3H]paclitaxel", "set-up": "species or system bovine", "details": "competitor 20 μM (5 μM for unlabeled paclitaxel)", "experimental": "as §1, §2\nThe reactions are then centrifuged at top speed in an Eppendorf 5415C microfuge for 20 min at room temperature in order to pellet the microtubule protein. Triplicate aliquots of each supernatant are mixed with scintillation fluid and counted in a liquid scintillation spectrometer. […] The ability of each competitor to inhibit radioligand binding to pelleted protein is expressed as a percent of controls without any competitor."}, "[6]": {"tested_on": "highly purified tubulin (tubulin heterodimer)", "test": "Competitive binding test, [3H]colchicine", "set-up": "species or system bovine", "details": "competitor 100 μM, [3H]colchicine 50 nM, percent of binding to control without competitor", "experimental": "as §1, §2, §3"}, "[7]": {"details": "U87-MG glioblastoma, intravenously on day 1 with 5 mg/kg"}}, "note": "Marks after values point to notes of the source that are not given here.", "data": [{"smiles": "CNCCCOc1cc(F)c(-c2c(Cl)nc(-c3cnccn3)nc2N[C@@H](C)C(F)(F)F)c(F)c1.Cl", "note": "[Example 24a, 6-Chloro-5-{2,6-difluoro-4-[3-(methylamino)propoxy]phenyl}-2-pyrazin-2-yl-N-[(1S)-2,2,2-trifluoro-1-methylethyl]pyrimidin-4-amine hygrogen chloride]", "values": [{"measurement": "T/C on day 0", "setting": "[1]; 5 mg/kg IV", "value": 1.0}, {"measurement": "T/C on day 7", "setting": "[1]; 5 mg/kg IV", "value": "0.24**"}, {"measurement": "T/C on day 14", "setting": "[1]; 5 mg/kg IV", "value": "Toxic"}, {"measurement": "T/C on day 0", "setting": "[1]; 5 mg/kg PO", "value": 1.0}, {"measurement": "T/C on day 7", "setting": "[1]; 5 mg/kg PO", "value": 1.07}, {"measurement": "T/C on day 14", "setting": "[1]; 5 mg/kg PO", "value": 0.85}, {"measurement": "T/C on day 0", "setting": "[1]; 10 mg/kg IV", "value": 1.0}, {"measurement": "T/C on day 7", "setting": "[1]; 10 mg/kg IV", "value": "Toxic"}, {"measurement": "T/C on day 0", "setting": "[1]; 10 mg/kg PO", "value": 1.0}, {"measurement": "T/C on day 7", "setting": "[1]; 10 mg/kg PO", "value": 0.82}, {"measurement": "T/C on day 14", "setting": "[1]; 10 mg/kg PO", "value": "0.28**"}, {"measurement": "growth of tumor", "setting": "[1]; DLD1 colon carcinoma, orally on days 1 and 7 at 10 mg/kg/dose", "value": "inhibits the growth"}, {"measurement": "T/C on day 0", "setting": "[2]; 1 mg/kg IV", "value": 1.03}, {"measurement": "T/C on day 3", "setting": "[2]; 1 mg/kg IV", "value": "0.71*"}, {"measurement": "T/C on day 7", "setting": "[2]; 1 mg/kg IV", "value": 0.75}, {"measurement": "T/C on day 10", "setting": "[2]; 1 mg/kg IV", "value": 0.86}, {"measurement": "T/C on day 0", "setting": "[2]; 5 mg/kg IV", "value": 1.04}, {"measurement": "T/C on day 3", "setting": "[2]; 5 mg/kg IV", "value": "0.41**"}, {"measurement": "T/C on day 7", "setting": "[2]; 5 mg/kg IV", "value": "0.21**"}, {"measurement": "T/C on day 10", "setting": "[2]; 5 mg/kg IV", "value": "0.17**"}, {"measurement": "T/C on day 0", "setting": "[2]; 10 mg/kg IV", "value": 1.04}, {"measurement": "T/C on day 3", "setting": "[2]; 10 mg/kg IV", "value": "0.31**"}, {"measurement": "T/C on day 7", "setting": "[2]; 10 mg/kg IV", "value": "Toxic"}, {"measurement": "compound toxicity", "setting": "[2]; [7]", "value": "some compound toxicity is also observed"}, {"measurement": "growth of xenografts", "setting": "[2]; [7]", "value": "inhibits the growth"}, {"measurement": "A340 Compound / A340 Control", "setting": "[3]", "value": 2.3}]}, {"smiles": "CNCCCOc1cc(F)c(-c2c(Cl)nc(-c3ccccn3)nc2N[C@@H](C)C(F)(F)F)c(F)c1.Cl", "note": "[Example 29a, 6-Chloro-5-{2,6-difluoro-4-[3-(methylamino)propoxy]phenyl}-2-pyridin-2-yl-N-[(S)-2,2,2-trifluoro-1-methylethyl]pyrimidin-4-amine hydrogen chloride]", "values": [{"measurement": "T/C on day 0", "setting": "[1]; 1 mg/kg IV", "value": 1.0}, {"measurement": "T/C on day 7", "setting": "[1]; 1 mg/kg IV", "value": "0.63*"}, {"measurement": "T/C on day 14", "setting": "[1]; 1 mg/kg IV", "value": "0.71*"}, {"measurement": "T/C on day 0", "setting": "[1]; 1 mg/kg PO", "value": 1.0}, {"measurement": "T/C on day 7", "setting": "[1]; 1 mg/kg PO", "value": 1.40}, {"measurement": "T/C on day 14", "setting": "[1]; 1 mg/kg PO", "value": 1.02}, {"measurement": "T/C on day 0", "setting": "[1]; 5 mg/kg IV", "value": 1.0}, {"measurement": "T/C on day 7", "setting": "[1]; 5 mg/kg IV", "value": "0.22**"}, {"measurement": "T/C on day 14", "setting": "[1]; 5 mg/kg IV", "value": "Toxic"}, {"measurement": "T/C on day 0", "setting": "[1]; 5 mg/kg PO", "value": 1.0}, {"measurement": "T/C on day 7", "setting": "[1]; 5 mg/kg PO", "value": 0.79}, {"measurement": "T/C on day 14", "setting": "[1]; 5 mg/kg PO", "value": "0.59*"}, {"measurement": "A340 Compound / A340 Control", "setting": "[3]", "value": 2.4}]}, {"smiles": "CNCCCOc1cc(F)c(-c2c(Cl)nc(-n3cccn3)nc2N[C@@H](C)C(F)(F)F)c(F)c1.Cl", "note": "[Example 32a, 6-Chloro-5-{2,6-difluoro-4-[3-(methylamino)propoxy]phenyl}-2-(1H-pyrazol-1-yl)-N-[(1S)-2,2,2-trifluoro-1-methylethyl)pyrimidin-4-amine Hydrogen Chloride]", "values": [{"measurement": "A340 Compound / A340 Control", "setting": "[3]", "value": 2.3}]}, {"smiles": "CC(=O)O[C@H]1C(=O)[C@@]2(C)[C@H]([C@H](OC(=O)c3ccccc3)[C@]3(O)C[C@H](OC(=O)[C@H](O)[C@@H](NC(=O)c4ccccc4)c4ccccc4)C(C)=C1C3(C)C)[C@]1(OC(C)=O)CO[C@@H]1C[C@@H]2O", "note": "[Paclitaxel, reference compound]", "values": [{"measurement": "[3H]Vinblastine binding, Mean", "setting": "[4]", "value": "92 % of control"}, {"measurement": "A340 Compound / A340 Control", "setting": "[3]", "value": 2.4}, {"measurement": "[3H]Paclitaxel binding, Mean", "setting": "[5]", "value": "35 % of control"}, {"measurement": "[3H]Colchicine binding, Mean", "setting": "[6]", "value": "93 % of control"}]}, {"smiles": "CC[C@]1(O)C[C@H]2CN(CCc3c([nH]c4ccccc34)[C@@](C(=O)OC)(c3cc4c(cc3OC)N(C=O)[C@H]3[C@@](O)(C(=O)OC)[C@H](OC(C)=O)[C@]5(CC)C=CCN6CC[C@]43[C@@H]65)C2)C1", "note": "[Vincristine, reference compound]", "values": [{"measurement": "[3H]Vinblastine binding, Mean", "setting": "[4]", "value": "5 % of control"}, {"measurement": "[3H]Vinblastine binding, Mean", "setting": "[4]; listed as vincristine", "value": "inhibits [^3H]vinblastine binding"}, {"measurement": "A340 Compound / A340 Control", "setting": "[3]", "value": 0.2}, {"measurement": "[3H]Colchicine binding, Mean", "setting": "[6]", "value": "99 % of control"}]}]}
